The structures appear in SMILES notation. Values joined by “and” are separate entries in the source; they are usually repeats but may differ in a detail not shown here. Equal values may be shown once.

One test addresses cKit(h) (Homo sapiens, UniProt P10721). The test can be described thus: Kinase selectivity panel (residual activity at 1 μM). Format: biochemical. The settings on record: inhibitor at 1 μM; read-out: residual kinase activity in % of maximal activity.
A further test has as its target KDR(h) (Homo sapiens, UniProt P35968). Described as above. As to conditions: inhibitor at 1 μM; read-out: residual kinase activity in % of maximal activity. Format: biochemical.
A further test has as its target Pim-3(h) (Homo sapiens, UniProt Q86V86). Described as above. Format: biochemical. The settings on record: inhibitor at 1 μM; read-out: residual kinase activity in % of maximal activity.
For the next test, the target named is PKCδ(h) (Homo sapiens, UniProt Q05655). The test is described as above. The test is classed as biochemical. As to conditions: inhibitor at 1 μM; read-out: residual kinase activity in % of maximal activity.
PKCδ(h), sequence (Q05655 whole entry): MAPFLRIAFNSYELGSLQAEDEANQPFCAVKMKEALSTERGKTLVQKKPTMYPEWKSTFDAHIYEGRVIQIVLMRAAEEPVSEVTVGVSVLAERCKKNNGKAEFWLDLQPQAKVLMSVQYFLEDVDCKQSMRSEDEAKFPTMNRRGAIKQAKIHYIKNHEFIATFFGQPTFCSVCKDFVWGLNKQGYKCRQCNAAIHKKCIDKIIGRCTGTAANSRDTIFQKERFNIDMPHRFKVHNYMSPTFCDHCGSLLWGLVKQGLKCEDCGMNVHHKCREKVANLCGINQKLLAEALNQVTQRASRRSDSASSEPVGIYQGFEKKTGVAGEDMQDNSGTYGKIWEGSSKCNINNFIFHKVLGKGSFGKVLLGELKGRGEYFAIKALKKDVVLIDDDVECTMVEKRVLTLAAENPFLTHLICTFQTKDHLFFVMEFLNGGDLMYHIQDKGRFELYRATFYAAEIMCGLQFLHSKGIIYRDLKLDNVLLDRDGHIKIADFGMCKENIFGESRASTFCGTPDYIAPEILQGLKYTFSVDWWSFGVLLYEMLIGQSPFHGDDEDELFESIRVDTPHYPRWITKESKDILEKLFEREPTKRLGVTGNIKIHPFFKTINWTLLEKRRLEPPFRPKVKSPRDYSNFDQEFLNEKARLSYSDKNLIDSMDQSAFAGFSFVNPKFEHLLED
A further test concerns the target SAPK2a(h) (Homo sapiens, UniProt Q16539). Described as above. The settings on record: inhibitor at 1 μM. The test is classed as biochemical.
Another test addresses SGK(h) (Homo sapiens, UniProt O00141). Described as above. The test is classed as biochemical. As to conditions: inhibitor at 1 μM; read-out: residual kinase activity in % of maximal activity.
Test [1] addresses T1, CaMKII-F89G binding to GST-GluN2B-c (Homo sapiens, UniProt Q9UQM7, F89G).
T1 construct: made in house; host or cells: HEK293 overexpression (CaMKII mutant); BL21 bacteria (CaM, GST-GluN2Bc)
The test is described as follows: CaMKII-F89G binding to immobilized GST-GluN2B-c in vitro. As to the method: CaMKII–GluN2B binding assays were done as described[9],[13],[25]. Briefly, GST–GluN2B-c tail (GST–2BC) was immobilized on anti-GST antibody-coated microtiter plates (Thermo Scientific), blocked for 30 min with 5% BSA and then overlaid with […] CaMKII (subunit concentration) in PIPES-buffered saline (pH 7.2) containing 2 mM Ca^2+, 1 μM CaM, 1 mM Mg^2+, 0.1% BSA and 0.1% Tween-20 for 20 min at room temperature. The addition of 1 mM ADP, 1 mM ATP, 10 μM AS283 (or AS105) or 10 μM NM-PP1 was added accordingly (Figs. 1–6). After extensive washes in buffer containing 1 mM EGTA, GST–2BC and bound CaMKII were eluted for 10 min in SDS loading buffer at 95 °C. Bound CaMKII was measured via immunoblot.
Extended Data Fig. 4 CaMKII WT and K42M are unaffected by NM-PP1 in HEK cells. Data are presented as mean values +/− SEM. a, Representative immunoblot and quantification of in vitro kinase reactions at 30 °C in 1 mM ATP measuring CaMKIIα WT and F89G phosphorylation of T286 (n = 4 independent samples, **p < 0.01, ***p < 0.001; two-way ANOVA with Šídák’s multiple comparisons test). WT) –:ATP p = 0.0012; –:ATP+NM-PP1 p = 0.0002; ATP:ATP+NM-PP1 p = 0.7989. […] Scale bar indicates 10 μm. n = 22, 17 cells; see Fig. 4c for quantification. c, Binding of CaMKII-F89G to immobilized GST-GluN2B-c was induced by Ca^2+/CaM in the presence of either 1 mM ADP or 10 μM NM-PP1. […]

In test [2] the test system is GFP–CaMKII F89G in rat hippocampal neurons. The test can be described thus: cLTP-induced CaMKII synaptic enrichment in dissociated hippocampal cultures (GFP–CaMKII F89G). As to conditions: for CaMKII synaptic enrichment: GFP-CaMKII F89G, individual neurons, sheet 4e. Format: cell-based.
The subject of test [3] is GFP–CaMKII K42M in rat hippocampal neurons. The test is described as follows: cLTP-induced CaMKII synaptic enrichment in dissociated hippocampal cultures (GFP–CaMKII K42M). Format: cell-based. The settings on record: sheet 4e.

T1 sequence (Q9UQM7 whole entry F89G): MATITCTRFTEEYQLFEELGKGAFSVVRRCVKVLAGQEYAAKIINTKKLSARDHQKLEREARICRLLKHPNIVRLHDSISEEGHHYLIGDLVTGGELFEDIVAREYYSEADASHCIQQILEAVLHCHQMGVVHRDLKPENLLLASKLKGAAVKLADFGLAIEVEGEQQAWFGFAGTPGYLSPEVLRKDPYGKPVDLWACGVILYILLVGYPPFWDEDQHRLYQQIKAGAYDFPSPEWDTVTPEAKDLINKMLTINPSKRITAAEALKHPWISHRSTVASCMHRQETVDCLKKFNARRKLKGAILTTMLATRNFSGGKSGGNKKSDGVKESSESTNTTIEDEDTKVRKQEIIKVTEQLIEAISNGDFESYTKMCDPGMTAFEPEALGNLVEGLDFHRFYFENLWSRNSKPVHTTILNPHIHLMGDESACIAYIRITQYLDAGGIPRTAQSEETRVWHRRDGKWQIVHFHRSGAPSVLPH
T1 sequence (Q13224 836-1484, further chain): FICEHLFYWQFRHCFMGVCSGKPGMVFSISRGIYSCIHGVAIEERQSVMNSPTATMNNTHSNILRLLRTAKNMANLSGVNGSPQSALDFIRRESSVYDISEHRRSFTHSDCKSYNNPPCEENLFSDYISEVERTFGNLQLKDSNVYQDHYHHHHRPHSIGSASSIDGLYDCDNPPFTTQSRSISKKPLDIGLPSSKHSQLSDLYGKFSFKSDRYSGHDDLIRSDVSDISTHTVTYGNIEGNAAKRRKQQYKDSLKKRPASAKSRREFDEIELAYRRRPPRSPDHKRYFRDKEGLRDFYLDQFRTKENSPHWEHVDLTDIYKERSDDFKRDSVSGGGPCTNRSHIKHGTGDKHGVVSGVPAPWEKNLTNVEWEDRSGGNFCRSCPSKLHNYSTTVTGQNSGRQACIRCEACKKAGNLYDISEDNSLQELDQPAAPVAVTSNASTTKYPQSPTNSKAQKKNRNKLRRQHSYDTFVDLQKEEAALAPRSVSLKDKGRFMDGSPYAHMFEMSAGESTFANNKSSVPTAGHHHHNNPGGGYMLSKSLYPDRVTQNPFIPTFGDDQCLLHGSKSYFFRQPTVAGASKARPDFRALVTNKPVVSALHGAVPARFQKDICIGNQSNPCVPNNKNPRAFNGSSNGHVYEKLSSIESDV
cKit(h), sequence (P10721 26-976): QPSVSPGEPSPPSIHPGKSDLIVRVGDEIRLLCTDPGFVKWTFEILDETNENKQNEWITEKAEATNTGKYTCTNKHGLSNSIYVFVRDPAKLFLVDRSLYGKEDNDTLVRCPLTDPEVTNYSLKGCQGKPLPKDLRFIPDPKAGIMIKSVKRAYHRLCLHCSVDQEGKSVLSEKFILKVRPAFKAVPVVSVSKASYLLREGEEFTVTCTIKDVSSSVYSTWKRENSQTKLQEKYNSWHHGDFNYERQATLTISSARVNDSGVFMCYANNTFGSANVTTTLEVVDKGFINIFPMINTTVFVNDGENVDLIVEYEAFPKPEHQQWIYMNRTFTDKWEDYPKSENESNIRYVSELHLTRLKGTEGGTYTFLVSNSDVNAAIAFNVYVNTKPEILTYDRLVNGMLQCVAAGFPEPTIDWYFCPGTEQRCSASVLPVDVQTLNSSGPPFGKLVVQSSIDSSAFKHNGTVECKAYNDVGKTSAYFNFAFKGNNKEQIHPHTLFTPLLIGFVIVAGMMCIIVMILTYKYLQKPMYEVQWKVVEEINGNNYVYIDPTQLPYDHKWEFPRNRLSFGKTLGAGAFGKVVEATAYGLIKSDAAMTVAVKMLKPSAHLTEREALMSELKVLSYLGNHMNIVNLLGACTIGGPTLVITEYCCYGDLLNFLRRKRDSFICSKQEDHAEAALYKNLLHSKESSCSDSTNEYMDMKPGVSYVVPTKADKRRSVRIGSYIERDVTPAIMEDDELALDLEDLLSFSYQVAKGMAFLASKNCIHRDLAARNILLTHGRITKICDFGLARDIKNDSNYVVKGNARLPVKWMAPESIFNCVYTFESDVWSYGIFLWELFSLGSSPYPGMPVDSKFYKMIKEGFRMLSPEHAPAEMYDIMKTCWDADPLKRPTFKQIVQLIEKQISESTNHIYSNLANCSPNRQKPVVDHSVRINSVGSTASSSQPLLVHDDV
KDR(h), sequence (P35968 20-1356): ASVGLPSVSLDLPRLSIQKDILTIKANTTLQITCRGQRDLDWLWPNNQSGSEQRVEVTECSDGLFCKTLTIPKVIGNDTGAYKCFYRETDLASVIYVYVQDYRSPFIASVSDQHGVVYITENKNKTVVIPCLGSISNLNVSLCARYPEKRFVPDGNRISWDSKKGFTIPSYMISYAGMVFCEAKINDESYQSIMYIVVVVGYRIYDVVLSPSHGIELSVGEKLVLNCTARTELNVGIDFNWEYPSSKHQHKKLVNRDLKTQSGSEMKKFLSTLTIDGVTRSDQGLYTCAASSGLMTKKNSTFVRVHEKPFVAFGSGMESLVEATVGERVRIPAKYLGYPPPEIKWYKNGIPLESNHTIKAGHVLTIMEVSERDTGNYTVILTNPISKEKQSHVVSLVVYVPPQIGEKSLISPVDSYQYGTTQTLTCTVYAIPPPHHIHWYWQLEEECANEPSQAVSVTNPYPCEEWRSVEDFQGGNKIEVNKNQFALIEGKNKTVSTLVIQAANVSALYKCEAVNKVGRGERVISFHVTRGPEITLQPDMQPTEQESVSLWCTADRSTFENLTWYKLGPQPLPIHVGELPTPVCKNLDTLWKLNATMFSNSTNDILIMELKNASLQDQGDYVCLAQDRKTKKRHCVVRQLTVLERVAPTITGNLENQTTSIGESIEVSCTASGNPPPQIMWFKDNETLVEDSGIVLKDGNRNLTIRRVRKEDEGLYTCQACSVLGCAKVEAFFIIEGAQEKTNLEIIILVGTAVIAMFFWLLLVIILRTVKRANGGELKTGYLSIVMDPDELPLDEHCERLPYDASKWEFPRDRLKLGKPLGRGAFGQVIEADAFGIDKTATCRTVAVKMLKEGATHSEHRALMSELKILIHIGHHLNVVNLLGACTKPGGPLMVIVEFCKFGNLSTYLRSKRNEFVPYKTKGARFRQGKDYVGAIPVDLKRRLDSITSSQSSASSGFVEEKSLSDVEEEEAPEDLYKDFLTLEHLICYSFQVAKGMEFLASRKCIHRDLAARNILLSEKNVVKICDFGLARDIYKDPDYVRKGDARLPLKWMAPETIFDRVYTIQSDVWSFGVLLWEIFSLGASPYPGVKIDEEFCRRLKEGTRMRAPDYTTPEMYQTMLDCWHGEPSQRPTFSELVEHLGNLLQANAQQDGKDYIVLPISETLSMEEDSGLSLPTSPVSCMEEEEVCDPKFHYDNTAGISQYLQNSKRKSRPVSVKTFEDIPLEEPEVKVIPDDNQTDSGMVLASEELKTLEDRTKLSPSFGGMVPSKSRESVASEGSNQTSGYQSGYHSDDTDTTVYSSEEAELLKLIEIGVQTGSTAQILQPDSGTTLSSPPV
SGK(h), sequence (O00141 whole entry): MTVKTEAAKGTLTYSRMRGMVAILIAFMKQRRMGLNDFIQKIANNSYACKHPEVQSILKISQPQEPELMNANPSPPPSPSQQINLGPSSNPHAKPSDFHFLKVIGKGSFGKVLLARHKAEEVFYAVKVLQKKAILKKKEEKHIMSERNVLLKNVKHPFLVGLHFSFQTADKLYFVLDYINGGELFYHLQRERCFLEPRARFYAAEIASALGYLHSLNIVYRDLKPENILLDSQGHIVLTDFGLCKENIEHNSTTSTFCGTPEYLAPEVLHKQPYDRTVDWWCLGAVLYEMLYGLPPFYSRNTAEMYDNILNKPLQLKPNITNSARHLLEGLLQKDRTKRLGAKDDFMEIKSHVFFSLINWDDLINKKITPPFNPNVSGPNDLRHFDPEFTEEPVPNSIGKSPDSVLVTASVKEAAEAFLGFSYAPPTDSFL

Turning to `NCCNc1cccc(-c2ccnc3[nH]c4ccccc4c23)c1` [AS283], the remaining activity at 1 µM on cKit(h) is 50%; on KDR(h), 15%; at Pim-3(h) it was 97%; at PKCδ(h), 39%; on SGK(h) it was 86%. Further, at SAPK2a(h), the “residual kinase activity in % of maximal activity” value was 95%.

Take `CC(C)(C)n1nc(Cc2cccc3ccccc23)c2c(N)ncnc21` [NM-PP1]: in [1] (Ca2+/CaM, 10 μM NM-PP1), the “bound CaMKII-F89G (immunoblot, relative)” value is 3.501 and 3.151 and 3.552 and 3.537. Besides, in [1] (NM-PP1), the “effect on binding of CaMKII F89G to GluN2B in vitro” value is listed as “enabled binding”. For the same compound, the “effect on impaired LTP-induced synaptic CaMKII localization” value in test [2] (F89G mutant, 10 μM NM-PP1) was “rescued”. In addition, the CaMKII synaptic enrichment is 1.457 and 2.177 and 1.336 and 1.561 and 0.9177 and 1.552 in [2] (NMPP1, before cLTP); 2.238 and 2.292 and 2.101 and 2.038 and 1.685 and 2.186 in [2] (after cLTP in NMPP1); 1.065 and 0.7915 and 0.7418 and 0.4255 and 0.8744 and 0.8871 in test [3] (NMPP1, before cLTP, individual neurons); 1.554 and 1.155 and 0.8796 and 0.5587 and 1.358 and 1.0618 in test [3] (after cLTP in NMPP1, individual neurons).

The values above are taken from paper PMC10482691, “LTP induction by structural rather than enzymatic functions of CaMKII” (Nature, 2023).
